Assays:
[1] = tested on: phosphorylation of threonine 202 (Thr202) and tyrosine 204 (Tyr204) of ERK; experiment: ERK phosphorylation inhibitory effect by Cell ELISA in AsPC-1 (Test Example 2); type: cell-based, human; conditions: Homo sapiens, ASPC1, AsPC-1 cells, cultured overnight with compound; 1 μM trametinib taken as 0%
Procedure: Test Example 2: Evaluation of ERK Phosphorylation Inhibitory Effect on Human G12D Mutant KRAS-Positive Pancreatic Cancer Line AsPC-1
The ERK phosphorylation inhibitory effect of test compounds was evaluated by measuring phosphorylation of threonine 202 (Thr202) and tyrosine 204 (Tyr204) of ERK located downstream of the KRAS signal by Cell ELISA.
AsPC-1 cells were seeded on 384-well plates at 36 μL/well to give 2.0×10^4 cells per well. As for the cell culture conditions, RPMI 1640 medium containing 10% fetal bovine serum was used in the presence of 5% CO2 at 37° C.
The next day, the test compounds (10 points having final concentrations in the range of 10 μM to 0.3 nM), trametinib (MEK inhibitor) of a final concentration of 1 μM as positive control and DMSO, which was the solvent for the test compounds, as negative control were diluted 100-fold with a fresh medium and were added at 4 μL per well. The cells were cultured overnight. After culturing, 30% glyoxal solution (40% glyoxal [from Nacalai Tesque] was diluted with PBS) was quickly added at 30 μL per well, and the plate was allowed to stand for 60 minutes at room temperature to thus immobilize the cells. Then, the plate was centrifuged to remove the supernatant (using a centrifugal dehydrator machine, the supernatant was removed by the same method hereinafter), and 0.1% Triton X-100-containing PBS was added at 20 μL per well. After allowing to stand for 10 minutes at room temperature, the supernatant was removed, and the same operation was further repeated. Next, 0.5% SDS-containing PBS was added at 20 μL per well, and after allowing to stand at room temperature for 30 minutes, the supernatant was removed. Subsequently, blocking solution (Intercept Blocking Buffer) was added at 20 μL per well, and the plate was allowed to stand for 1 hour at room temperature. The supernatant was removed, and an ERK (Thr202/Tyr204) phosphorylation antibody (Phospho-p44/42 MAPK (Erk 1/2) (Thr202/Tyr204) (D13.14.4E) XP Rabbit mAb; from Cell Signaling Technology) diluted 2,500-fold with blocking solution was added at 15 μL per well as a primary antibody. The plates were allowed to stand at 4° C. overnight.
The next day, the supernatant was removed. 0.05% Tween-20 (from Thermo Fisher Scientific)-containing PBS was added at 50 μL per well, and the supernatant was removed to thus wash each well. The washing was performed three times in total. After washing, Goat anti-Rabbit IgG H&L (IRDye 800CW) diluted 1,000-fold with blocking solution was added at 15 μL per well as a secondary antibody, and the plates were allowed to stand for 1 hour at room temperature. The supernatant was removed, and each well was washed three times with 0.05% Tween-20-containing PBS in the same manner as after the primary antibody reaction. After removing the supernatant, the plates were dried with air at room temperature for 3 hours or more, and the 800-nm fluorescent signals were measured with Aerius.
With the signaling value at the time of addition of DMSO taken as 100% and with the signaling value at the time of addition of 1 μM trametinib taken as 0%, the 50% inhibitory concentration values (IC50) were calculated by Sigmoid-Emax nonlinear regression analysis.

[2] = tested on: human G12D mutant KRAS-positive pancreatic cancer line AsPC-1; experiment: Non-anchorage-dependent cell growth inhibition, spheroid 3D cell culture (Test Example 3); type: cell-based; conditions: Homo sapiens, ASPC1, 144 h, AsPC-1 spheroid 3D culture, 6 days, CellTiter Glo 2.0
Procedure: Test Example 3: Evaluation of Non-Anchorage-Dependent Cell Growth Inhibitory Effect on Human G12D Mutant KRAS-Positive Pancreatic Cancer Line AsPC-1
The non-anchorage-dependent cell growth inhibitory effect of test compounds was evaluated by spheroid 3D cell culture.
AsPC-1 cells were seeded on low-cell-adhesive round bottom 384-well plates (PrimeSurface: from Sumitomo Bakelite) at 36 μL/well to give 5×10^2 cells per well. As for the cell culture conditions, RPMI 1640 medium containing 10% fetal bovine serum was used in the presence of 5% CO2 at 37° C.
The next day, the test compounds (10 or 6 points having final concentrations in the range of 10 μM to 0.3 nM) and DMSO, which was the solvent for the test compounds, as a negative control were diluted 100-fold with a fresh medium and were added at 4 μL per well. After culturing in the presence of 5% CO2 at 37° C. for 6 days, CellTiter Glo 2.0 (from Promega) was added at 20 μL per well. After stirring with a plate mixer (from FINEPCR) at room temperature for 1 hour, the luminescent signals were measured with ARVO X3 (from PerkinElmer).
With the signaling value in treatment with DMSO taken as 100% and with the signaling value in the medium alone without cells taken as 0%, the 50% inhibitory concentration values (IC50) were calculated by Sigmoid-Emax nonlinear regression analysis.

KRAS G12D protein = target: T1, KRAS G12D protein (Homo sapiens, UniProt P01116, G12D); experiment: KRAS degradation activity by Cell ELISA in AsPC-1 (Test Example 1); type: cell-based; conditions: AsPC-1 cells, cultured overnight with compound, corrected with β-actin, read-out: DC50 (50% degradation concentration of the amounts of KRAS)
T1 construct: host or cells: AsPC-1
Procedure: Test Example 1: Evaluation of KRAS Degradation Activity on Human G12D Mutant KRAS-Positive Pancreatic Cancer Line AsPC-1 (CRL-1682; ATCC)
The KRAS degradation activity of test compounds was evaluated by measuring the expression levels of KRAS G12D protein by Cell ELISA.
AsPC-1 cells were seeded at 20 μL per well on 384-well plates (from Greiner bio-one) to give 2.0×10^4 cells per well. As for the cell culture conditions, RPMI 1640 (from Sigma-Aldrich) medium containing 10% fetal bovine serum (from Cytiva) was used in the presence of 5% CO2 at 37° C.
The next day, the test compounds (10 points having final concentrations in the range of 10 μM to 0.3 nM) and DMSO (from FUJIFILM Wako Pure Chemical Corporation), which was the solvent for the test compounds, as a negative control were diluted 500-fold with a fresh medium and were added at 20 μL per well. The cells were cultured overnight.
The next day, the culture supernatant was removed, and 4% paraformaldehyde phosphate buffer (from FUJIFILM Wako Pure Chemical Corporation) was added at 20 μL per well. The plates were allowed to stand for 30 minutes at room temperature to thus immobilize the cells. Then, the supernatant was removed, and 0.1% Triton X-100 (from Amersham Biosciences)-containing Phosphate buffered saline (PBS; from FUJIFILM Wako Pure Chemical Corporation) was added at 20 μL per well. After allowing to stand for 10 minutes at room temperature, the supernatant was removed. PBS was added at 25 μL per well, and the supernatant was removed to thus wash each well. The washing was performed twice in total. Next, the supernatant was removed, and 0.5% sodium dodecyl sulfate (SDS; from Invitrogen)-containing PBS was added at 20 μL per well. After allowing to stand at room temperature for 10 minutes, the supernatant was removed by a centrifugal operation (using a centrifugal dehydrator machine, the supernatant was removed by the same method hereinafter). PBS was added at 25 μL per well, and the supernatant was removed to thus wash each well. The washing was performed twice in total. The supernatant was removed, and blocking solution (Intercept Blocking Buffer; from Li-COR Biosciences) was added at 20 μL per well. After allowing to stand for 30 minutes at room temperature, the supernatant was removed, and a solution obtained by diluting anti-β-actin antibody (Anti-beta Actin antibody [mAbcam 8226]-Loading Control; from abcam) 1,000-fold with blocking solution and a solution obtained by diluting anti-Ras (G12D Mutant Specific) antibody (Ras (G12D Mutant Specific) (D8H7) Rabbit mAb #14429; from Cell Signaling Technology) and anti-β-actin antibody (from abcam) 1,000-fold with blocking solution were respectively added to positive control wells and the other wells at 20 μL per well as a primary antibody. The plate was allowed to stand overnight at 4° C.
The next day, the supernatant was removed. PBS was added at 25 μL per well, and the supernatant was removed to thus wash each well. The washing was performed twice in total. The supernatant was removed, and a solution obtained by diluting Donkey anti-Mouse IgG H&L (IRDye 680RD) (from Li-COR Biosciences) and Goat anti-Rabbit IgG H&L (IRDye 800CW) (from Li-COR Biosciences) 1,000-fold with blocking solution was added at 20 μL per well as a secondary antibody. After allowing to stand for 1 hour at room temperature, the supernatant was removed. PBS was added at 25 μL per well, and the supernatant was removed to thus wash each well. The washing was performed twice in total. After removing the supernatant, the plate was dried with air at room temperature for 2 hours or more, and the 700 nm and 800 nm fluorescent signals were measured with Aerius (from Li-COR Biosciences). […]

T1 sequence (P01116 1-188 isoform P01116-2 G12D): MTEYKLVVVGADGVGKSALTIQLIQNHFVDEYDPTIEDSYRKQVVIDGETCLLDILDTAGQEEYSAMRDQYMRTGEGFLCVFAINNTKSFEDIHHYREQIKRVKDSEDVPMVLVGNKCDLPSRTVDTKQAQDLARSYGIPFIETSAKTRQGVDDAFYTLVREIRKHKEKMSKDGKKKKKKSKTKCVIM

IC50 [1] | IC50 [2] | DC50 (KRAS G12D protein) | SMILES
16 nM | 14 nM | 26 nM | CO[C@H](C)COc1nc(N(C)[C@H]2CCNC2)c2cc(C3CC3)c(-c3c(C)c(F)cc4[nH]ncc34)c(OCc3ccc(-c4cn([C@H](C(=O)N5C[C@H](O)C[C@H]5C(=O)N[C@@H](CO)c5ccc(-c6scnc6C)cc5)C(C)C)nn4)cc3)c2n1 (atropisomer, axis not shown) [Example 16]
7 nM | 8 nM | 74 nM | Cc1ncsc1-c1ccc([C@H](CO)NC(=O)[C@@H]2C[C@@H](O)CN2C(=O)[C@H](C(C)C)n2cc(-c3ccc(COc4c(-c5c(C)c(F)cc6[nH]ncc56)c(C5CC5)cc5c(N(C)[C@H]6CCNC6)nc(OC[C@H]6CCOC6)nc45)cc3)nn2)cc1 (atropisomer, axis not shown) [Example 17]
100 nM | 73 nM | 508 nM | Cc1ncsc1-c1ccc([C@H](CO)NC(=O)[C@@H]2C[C@@H](O)CN2C(=O)[C@H](C(C)C)n2cc(-c3ccc(COc4c(-c5c(C)c(F)cc6[nH]ncc56)c(C5CC5)cc5c(N(C)[C@H]6CCNC6)nc(OC[C@H]6CCN(C)C6)nc45)cc3)nn2)cc1 (atropisomer, axis not shown) [Example 18]
95 nM | 50 nM | 91 nM | Cc1ncsc1-c1ccc([C@H](CO)NC(=O)[C@@H]2C[C@@H](O)CN2C(=O)[C@H](C(C)C)n2cc(-c3ccc(COc4c(-c5c(C)c(F)cc6[nH]ncc56)c(C5CC5)cc5c(N(C)[C@H]6CCNC6)nc(O[C@@H](C)[C@H](C)O)nc45)cc3)nn2)cc1 (atropisomer, axis not shown) [Example 19]
38 nM | 21 nM | 41 nM | CO[C@@H](C)[C@H](C)Oc1nc(N(C)[C@H]2CCNC2)c2cc(C3CC3)c(-c3c(C)c(F)cc4[nH]ncc34)c(OCc3ccc(-c4cn([C@H](C(=O)N5C[C@H](O)C[C@H]5C(=O)N[C@@H](CO)c5ccc(-c6scnc6C)cc5)C(C)C)nn4)cc3)c2n1 (atropisomer, axis not shown) [Example 20]
47 nM | 53 nM | 33 nM | CO[C@@H](C)COc1nc(N(C)[C@H]2CCNC2)c2cc(C3CC3)c(-c3c(C)c(F)cc4[nH]ncc34)c(OCc3ccc(-c4cn([C@H](C(=O)N5C[C@H](O)C[C@H]5C(=O)N[C@@H](CO)c5ccc(-n6ccnc6C)cc5)C(C)C)nn4)cc3)c2n1 (atropisomer, axis not shown) [Example 21]
13 nM | 12 nM | 31 nM | Cc1ncsc1-c1ccc([C@H](CO)NC(=O)[C@@H]2C[C@@H](O)CN2C(=O)[C@H](C(C)C)n2cc(-c3ccc(COc4c(-c5c(C)c(F)cc6[nH]ncc56)c(C5CC5)cc5c(N(C)[C@H]6CCNC6)nc(OC[C@@H]6CCOC6)nc45)cc3)nn2)cc1 (atropisomer, axis not shown) [Example 23]
15 nM | 26 nM | 48 nM | COCCOc1nc(N(C)[C@H]2CCNC2)c2cc(C3CC3)c(-c3c(C)c(F)cc4[nH]ncc34)c(OCc3ccc(-c4cn([C@H](C(=O)N5C[C@H](O)C[C@H]5C(=O)N[C@@H](CO)c5ccc(-c6scnc6C)cc5)C(C)C)nn4)cc3)c2n1 (atropisomer, axis not shown) [Example 24]
6 nM | 6 nM | 75 nM | CCn1nccc1-c1ccc([C@H](CO)NC(=O)[C@@H]2C[C@@H](O)CN2C(=O)[C@H](C(C)C)n2cc(-c3ccc(COc4c(-c5c(C)c(F)cc6[nH]ncc56)c(C5CC5)cc5c(N(C)[C@H]6CCNC6)nc(OC[C@H](C)OC)nc45)cc3)nn2)nc1 (atropisomer, axis not shown) [Example 25]
2 nM | 3 nM | 22 nM | CCn1nccc1-c1ccc([C@H](CO)NC(=O)[C@@H]2C[C@@H](O)CN2C(=O)[C@H](C(C)C)n2cc(-c3ccc(COc4c(-c5c(C)c(F)cc6[nH]ncc56)c(C5CC5)cc5c(N(C)[C@H]6CCNC6)nc(OC[C@@H]6CCCO6)nc45)cc3)nn2)cc1 (atropisomer, axis not shown) [Example 26]
7 nM | 7 nM | 68 nM | Cc1c(F)cc2[nH]ncc2c1-c1c(C2CC2)cc2c(N(C)[C@H]3CCNC3)cc(OC[C@@H]3CCCO3)nc2c1OCc1ccc(-c2cn([C@H](C(=O)N3C[C@H](O)C[C@H]3C(=O)N[C@@H](CO)c3ccc(-n4ccnc4C)cc3)C(C)C)nn2)cc1 (atropisomer, axis not shown) [Example 27]

Reference: patent publication US20250206751A1, “HETEROCYCLIC COMPOUND FOR INDUCING DEGRADATION OF G12D MUTANT KRAS PROTEIN” (Astellas Pharma Inc., priority 2022, published 2025)
